The results in this text go back to ChEMBL document CHEMBL2331378, “Synthesis and discovery of novel piperidone-grafted mono- and bis-spirooxindole-hexahydropyrrolizines as potent cholinesterase inhibitors” (Bioorg Med Chem, 2013).

For one experiment, the target named is Cholinesterase (Equus caballus, UniProt P81908). The experiment is described as follows: Inhibition of equine serum BuChE using S-butyrylthiocholine chloride substrate by Ellman's method based spectrophotometry.
Experiment [1] can be described thus: Selectivity index, ratio of IC50 for equine serum BuChE to IC50 for AChE (unknown origin).
A short description of experiment [2]: Selectivity index, ratio of IC50 for AChE (unknown origin) to IC50 for equine serum BuChE.
In the next experiment the target is Acetylcholinesterase (Homo sapiens, UniProt P22303). As to the kind of experiment: Inhibition of AChE (unknown origin) using acetylthiocholine iodide substrate by Ellman's method based spectrophotometry.
Sequence of Acetylcholinesterase (P22303 whole entry): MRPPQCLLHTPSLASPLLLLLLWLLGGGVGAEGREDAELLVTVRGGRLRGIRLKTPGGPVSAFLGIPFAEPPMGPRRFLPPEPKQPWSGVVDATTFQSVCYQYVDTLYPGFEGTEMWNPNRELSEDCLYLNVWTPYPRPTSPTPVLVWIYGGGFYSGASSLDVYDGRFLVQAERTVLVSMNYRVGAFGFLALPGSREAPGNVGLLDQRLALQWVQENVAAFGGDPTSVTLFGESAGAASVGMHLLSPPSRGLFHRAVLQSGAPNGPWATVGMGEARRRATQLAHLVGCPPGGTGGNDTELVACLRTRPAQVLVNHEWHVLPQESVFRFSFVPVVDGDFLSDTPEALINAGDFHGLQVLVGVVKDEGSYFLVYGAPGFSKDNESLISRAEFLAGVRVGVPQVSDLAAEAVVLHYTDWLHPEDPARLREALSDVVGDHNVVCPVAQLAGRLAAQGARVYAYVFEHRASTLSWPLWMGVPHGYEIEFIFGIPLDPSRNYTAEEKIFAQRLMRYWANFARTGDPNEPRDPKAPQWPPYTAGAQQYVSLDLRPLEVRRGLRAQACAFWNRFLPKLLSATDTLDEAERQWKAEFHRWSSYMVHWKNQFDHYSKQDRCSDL

Each structure is given as a SMILES string.

Sequence of Cholinesterase (P81908 whole entry): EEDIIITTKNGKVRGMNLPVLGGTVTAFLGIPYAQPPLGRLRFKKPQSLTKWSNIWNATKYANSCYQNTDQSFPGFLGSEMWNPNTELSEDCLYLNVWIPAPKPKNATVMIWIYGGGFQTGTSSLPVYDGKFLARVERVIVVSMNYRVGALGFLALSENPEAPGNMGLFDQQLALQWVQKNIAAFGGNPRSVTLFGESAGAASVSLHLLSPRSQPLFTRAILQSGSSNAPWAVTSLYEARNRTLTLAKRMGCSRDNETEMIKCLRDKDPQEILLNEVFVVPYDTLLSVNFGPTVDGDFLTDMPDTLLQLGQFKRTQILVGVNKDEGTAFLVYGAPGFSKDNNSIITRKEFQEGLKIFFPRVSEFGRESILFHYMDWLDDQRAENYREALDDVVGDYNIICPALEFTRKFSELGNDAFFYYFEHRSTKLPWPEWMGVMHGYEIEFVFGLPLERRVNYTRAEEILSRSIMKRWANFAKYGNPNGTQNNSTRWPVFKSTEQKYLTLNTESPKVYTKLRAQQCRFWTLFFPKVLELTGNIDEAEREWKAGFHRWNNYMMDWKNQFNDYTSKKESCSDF

For `O=C(C[C@H]1C[C@H]2CCCN2[C@]12C(=O)Nc1ccccc12)N1C/C(=C\c2ccc(Cl)cc2)C(=O)[C@]2(C[C@H]3CCCN3[C@@]23C(=O)Nc2ccccc23)C1` (racemic), the IC50 at Cholinesterase was 10.9 µM; against Acetylcholinesterase, 7.92 µM. In addition, the Ratio IC50 in experiment [1] turned out to be 1.38; in experiment [2], 0.73.

Turning to `O=C1/C(=C/c2ccccc2Cl)CN(C(=O)C[C@H]2C[C@H]3CCCN3[C@]23C(=O)Nc2ccccc23)C/C1=C\c1ccccc1Cl` (racemic), the half-inhibitory concentration (IC50) was determined as 19.7 µM at Cholinesterase and 11.9 µM on Acetylcholinesterase. In addition, the Ratio IC50 in experiment [1] was 1.66; in experiment [2] it was 0.6.

With `O=C(C[C@H]1C[C@H]2CCCN2[C@]12C(=O)Nc1ccccc12)N1C/C(=C\c2ccccc2F)C(=O)[C@]2(C[C@H]3CCCN3[C@@]23C(=O)Nc2ccccc23)C1` (racemic), the IC50 at Cholinesterase worked out at 9.09 µM; at Acetylcholinesterase, 24.6 µM. In addition, the Ratio IC50 in experiment [1] was found to be 0.37; in experiment [2] it was 2.7.

With `C=CC(=O)N1C/C(=C\c2ccccc2)C(=O)/C(=C/c2ccccc2)C1`, the 50% inhibitory concentration (IC50) against Cholinesterase came out at 22.1 µM; at Acetylcholinesterase, 17.7 µM. The figures for the Ratio IC50 in experiment [1] and in experiment [2] were 1.25 and 0.8, respectively.

Consider `C=CC(=O)N1C/C(=C\c2ccccc2F)C(=O)/C(=C/c2ccccc2F)C1`, for which the IC50 worked out at 54 µM at Cholinesterase and 11.8 µM on Acetylcholinesterase. Also, the Ratio IC50 is 4.58 in experiment [1] and 0.22 in experiment [2].

`C=CC(=O)N1C/C(=C\c2ccccc2OC)C(=O)/C(=C/c2ccccc2OC)C1`: the half-inhibitory concentration (IC50) at Cholinesterase was 28.9 µM; against Acetylcholinesterase, 8.72 µM. Besides, the Ratio IC50 in experiment [1] stood at 3.32; in experiment [2], 0.3.

In the case of `C=CC(=O)N1C/C(=C\c2ccc(Cl)cc2Cl)C(=O)/C(=C/c2ccc(Cl)cc2Cl)C1`, the IC50 on Cholinesterase worked out at 29.4 µM; against Acetylcholinesterase, 15.8 µM. Besides, the Ratio IC50 in experiment [1] came out at 1.86; in experiment [2], 0.54.

On to `Cc1ccccc1/C=C1\CN(C(=O)C[C@H]2C[C@H]3CCCN3[C@]23C(=O)Nc2ccccc23)C/C(=C\c2ccccc2C)C1=O` (racemic), for which the IC50 at Cholinesterase is 17.8 µM; on Acetylcholinesterase, 12.5 µM. In addition, the values for the Ratio IC50 in experiment [1] and in experiment [2] were 1.43 and 0.7, respectively.

On to `O=C(C[C@H]1C[C@H]2CCCN2[C@]12C(=O)Nc1ccccc12)N1C/C(=C\c2ccccc2)C(=O)[C@]2(C[C@H]3CCCN3[C@@]23C(=O)Nc2ccccc23)C1` (racemic), for which the IC50 against Cholinesterase came out at 18.2 µM; at Acetylcholinesterase it was 19.7 µM. For the same molecule, the Ratio IC50 in experiment [1] was determined as 0.93; in experiment [2], 1.08.

As to `O=C1/C(=C/c2cccc3ccccc23)CN(C(=O)C[C@H]2C[C@H]3CCCN3[C@]23C(=O)Nc2ccccc23)C/C1=C\c1cccc2ccccc12` (racemic), the concentration for half-maximal inhibition (IC50) worked out at 11.8 µM on Cholinesterase and 6.76 µM against Acetylcholinesterase. Besides, the Ratio IC50 was determined as 1.74 in experiment [1] and 0.57 in experiment [2].

As for `Cc1ccc(/C=C2\CN(C(=O)C[C@H]3C[C@H]4CCCN4[C@]34C(=O)Nc3ccccc34)C/C(=C\c3ccc(C)cc3)C2=O)cc1` (racemic), the IC50 was determined as 25.2 µM against Cholinesterase and 20.1 µM against Acetylcholinesterase. The Ratio IC50 in experiment [1] was 1.26; in experiment [2], 0.8.

Take `Cc1ccc(/C=C2\CN(C(=O)C[C@H]3C[C@H]4CCCN4[C@]34C(=O)Nc3ccccc34)C[C@@]3(C[C@H]4CCCN4[C@@]34C(=O)Nc3ccccc34)C2=O)cc1` (racemic): the IC50 at Cholinesterase came to 17.9 µM; against Acetylcholinesterase, 19.6 µM. Also, the Ratio IC50 in experiment [1] worked out at 0.91; in experiment [2] it was 1.1.

With `COc1ccccc1/C=C1\CN(C(=O)C[C@H]2C[C@H]3CCCN3[C@]23C(=O)Nc2ccccc23)C/C(=C\c2ccccc2OC)C1=O` (racemic), the figures for the IC50 at Cholinesterase and at Acetylcholinesterase were 9.41 µM and 15.9 µM, respectively. Further, the Ratio IC50 in experiment [1] was 0.59; in experiment [2], 1.69.

On to `O=C1/C(=C/c2ccc(F)cc2)CN(C(=O)C[C@H]2C[C@H]3CCCN3[C@]23C(=O)Nc2ccccc23)C/C1=C\c1ccc(F)cc1` (racemic), for which the IC50 against Cholinesterase is 3.99 µM; on Acetylcholinesterase, 19.8 µM. Besides, the figures for the Ratio IC50 in experiment [1] and in experiment [2] were 0.2 and 4.97, respectively.

`O=C1/C(=C/c2ccccc2)CN(C(=O)C[C@H]2C[C@H]3CCCN3[C@]23C(=O)Nc2ccccc23)C/C1=C\c1ccccc1` (racemic): the IC50 against Cholinesterase turned out to be 16.3 µM; on Acetylcholinesterase, 17.5 µM. For the same molecule, the figures for the Ratio IC50 in experiment [1] and in experiment [2] were 0.93 and 1.07, respectively.

For the molecule `O=C1/C(=C/c2ccc(Cl)cc2)CN(C(=O)C[C@H]2C[C@H]3CCCN3[C@]23C(=O)Nc2ccccc23)C/C1=C\c1ccc(Cl)cc1` (racemic), the concentration for half-maximal inhibition (IC50) came out at 32.3 µM against Cholinesterase and 3.36 µM against Acetylcholinesterase. Besides, the Ratio IC50 in experiment [1] is 9.6; in experiment [2] it was 0.1.

For `O=C(C[C@H]1C[C@H]2CCCN2[C@]12C(=O)Nc1ccccc12)N1C/C(=C\c2ccccc2Cl)C(=O)[C@]2(C[C@H]3CCCN3[C@@]23C(=O)Nc2ccccc23)C1` (racemic), the IC50 against Cholinesterase was 11.7 µM; at Acetylcholinesterase, 13.6 µM. In addition, the Ratio IC50 in experiment [1] was 0.86; in experiment [2] it was 1.16.

For `O=C1/C(=C/c2ccc(Cl)cc2Cl)CN(C(=O)C[C@H]2C[C@H]3CCCN3[C@]23C(=O)Nc2ccccc23)C/C1=C\c1ccc(Cl)cc1Cl` (racemic), the results for the half-maximal inhibitory concentration (IC50) against Cholinesterase and on Acetylcholinesterase were 21.2 µM and 4.11 µM, respectively. Also, the Ratio IC50 was 5.15 in experiment [1] and 0.19 in experiment [2].

Take `C=CC(=O)N1C/C(=C\c2ccc(F)cc2)C(=O)/C(=C/c2ccc(F)cc2)C1`: the concentration for half-maximal inhibition (IC50) against Cholinesterase came out at 30.6 µM; against Acetylcholinesterase, 15.1 µM. In addition, the Ratio IC50 in experiment [1] came to 2.02; in experiment [2] it was 0.49.

With `O=C(C[C@H]1C[C@H]2CCCN2[C@]12C(=O)Nc1ccccc12)N1C/C(=C\c2cccc([N+](=O)[O-])c2)C(=O)[C@]2(C[C@H]3CCCN3[C@@]23C(=O)Nc2ccccc23)C1` (racemic), the half-maximal inhibitory concentration (IC50) was found to be 24.3 µM against Cholinesterase and 26.6 µM against Acetylcholinesterase. Moreover, the Ratio IC50 in experiment [1] worked out at 0.91; in experiment [2], 1.1.

On to `Cc1ccccc1/C=C1\CN(C(=O)C[C@H]2C[C@H]3CCCN3[C@]23C(=O)Nc2ccccc23)C[C@@]2(C[C@H]3CCCN3[C@@]23C(=O)Nc2ccccc23)C1=O` (racemic), for which the values for the IC50 at Cholinesterase and on Acetylcholinesterase were 13 µM and 27.5 µM, respectively. The Ratio IC50 came to 0.47 in experiment [1] and 2.12 in experiment [2].

For the molecule `C=CC(=O)N1C/C(=C\c2cccc3ccccc23)C(=O)/C(=C/c2cccc3ccccc23)C1`, the results for the IC50 against Cholinesterase and against Acetylcholinesterase were 23.1 µM and 13.8 µM, respectively. Further, the figures for the Ratio IC50 in experiment [1] and in experiment [2] were 1.67 and 0.6, respectively.

Turning to `O=C1/C(=C/c2ccccc2F)CN(C(=O)C[C@H]2C[C@H]3CCCN3[C@]23C(=O)Nc2ccccc23)C/C1=C\c1ccccc1F` (racemic), the 50% inhibitory concentration (IC50) stood at 3.5 µM on Cholinesterase and 34.4 µM against Acetylcholinesterase. For the same molecule, the Ratio IC50 is 0.1 in experiment [1] and 9.82 in experiment [2].

For the molecule `C=CC(=O)N1C/C(=C\c2ccc(Cl)cc2)C(=O)/C(=C/c2ccc(Cl)cc2)C1`, the IC50 came to 38.2 µM against Cholinesterase and 22 µM against Acetylcholinesterase. The Ratio IC50 was 1.73 in experiment [1] and 0.58 in experiment [2].

In the case of `COc1ccccc1/C=C1\CN(C(=O)C[C@H]2C[C@H]3CCCN3[C@]23C(=O)Nc2ccccc23)C[C@@]2(C[C@H]3CCCN3[C@@]23C(=O)Nc2ccccc23)C1=O` (racemic), the IC50 stood at 19.2 µM at Cholinesterase and 11.4 µM on Acetylcholinesterase. The Ratio IC50 was found to be 1.68 in experiment [1] and 0.59 in experiment [2].

As for `O=C(C[C@H]1C[C@H]2CCCN2[C@]12C(=O)Nc1ccccc12)N1C/C(=C\c2ccc(F)cc2)C(=O)[C@]2(C[C@H]3CCCN3[C@@]23C(=O)Nc2ccccc23)C1` (racemic), the IC50 on Cholinesterase stood at 8.29 µM; against Acetylcholinesterase, 23.7 µM. The Ratio IC50 came out at 0.35 in experiment [1] and 2.86 in experiment [2].

For `O=C(C[C@H]1C[C@H]2CCCN2[C@]12C(=O)Nc1ccccc12)N1C/C(=C\c2cccc3ccccc23)C(=O)[C@]2(C[C@H]3CCCN3[C@@]23C(=O)Nc2ccccc23)C1` (racemic), the IC50 on Cholinesterase was 6.42 µM; on Acetylcholinesterase, 20.6 µM. Further, the Ratio IC50 worked out at 0.31 in experiment [1] and 3.21 in experiment [2].

Consider `C=CC(=O)N1C/C(=C\c2ccccc2C)C(=O)/C(=C/c2ccccc2C)C1`, for which the results for the half-inhibitory concentration (IC50) against Cholinesterase and against Acetylcholinesterase were 30 µM and 17.4 µM, respectively. Further, the figures for the Ratio IC50 in experiment [1] and in experiment [2] were 1.73 and 0.58, respectively.

Consider `C=CC(=O)N1C/C(=C\c2cccc([N+](=O)[O-])c2)C(=O)/C(=C/c2cccc([N+](=O)[O-])c2)C1`, for which the IC50 amounted to 51.2 µM at Cholinesterase and 9.76 µM on Acetylcholinesterase. The Ratio IC50 worked out at 5.24 in experiment [1] and 0.19 in experiment [2].

Regarding `C=CC(=O)N1C/C(=C\c2ccccc2Cl)C(=O)/C(=C/c2ccccc2Cl)C1`, the IC50 against Cholinesterase is 36.6 µM; on Acetylcholinesterase it was 16.3 µM. In addition, the Ratio IC50 in experiment [1] was 2.24; in experiment [2] it was 0.45.

Take `O=C(C[C@H]1C[C@H]2CCCN2[C@]12C(=O)Nc1ccccc12)N1C/C(=C\c2ccc(Cl)cc2Cl)C(=O)[C@]2(C[C@H]3CCCN3[C@@]23C(=O)Nc2ccccc23)C1` (racemic): the IC50 against Cholinesterase was found to be 9.45 µM; against Acetylcholinesterase, 6.96 µM. For the same molecule, the Ratio IC50 in experiment [1] came out at 1.36; in experiment [2] it was 0.74.

Consider `O=C1/C(=C/c2cccc([N+](=O)[O-])c2)CN(C(=O)C[C@H]2C[C@H]3CCCN3[C@]23C(=O)Nc2ccccc23)C/C1=C\c1cccc([N+](=O)[O-])c1` (racemic), for which the IC50 at Cholinesterase came out at 18.1 µM; against Acetylcholinesterase, 5.99 µM. For the same molecule, the Ratio IC50 was found to be 3.03 in experiment [1] and 0.33 in experiment [2].

For `C=CC(=O)N1C/C(=C\c2ccc(C)cc2)C(=O)/C(=C/c2ccc(C)cc2)C1`, the IC50 against Cholinesterase came to 35.1 µM; against Acetylcholinesterase, 18.1 µM. For the same molecule, the Ratio IC50 in experiment [1] came to 1.94; in experiment [2], 0.51.
